From BindingDB's records for patent US20240352046 (1Cbio, 2024) come the findings set out here.

The target of this assay is T1, Ectonucleotide pyrophosphatase/phosphodiesterase family member 1 (Homo sapiens, UniProt P22413).
T1 sequence (P22413 whole entry): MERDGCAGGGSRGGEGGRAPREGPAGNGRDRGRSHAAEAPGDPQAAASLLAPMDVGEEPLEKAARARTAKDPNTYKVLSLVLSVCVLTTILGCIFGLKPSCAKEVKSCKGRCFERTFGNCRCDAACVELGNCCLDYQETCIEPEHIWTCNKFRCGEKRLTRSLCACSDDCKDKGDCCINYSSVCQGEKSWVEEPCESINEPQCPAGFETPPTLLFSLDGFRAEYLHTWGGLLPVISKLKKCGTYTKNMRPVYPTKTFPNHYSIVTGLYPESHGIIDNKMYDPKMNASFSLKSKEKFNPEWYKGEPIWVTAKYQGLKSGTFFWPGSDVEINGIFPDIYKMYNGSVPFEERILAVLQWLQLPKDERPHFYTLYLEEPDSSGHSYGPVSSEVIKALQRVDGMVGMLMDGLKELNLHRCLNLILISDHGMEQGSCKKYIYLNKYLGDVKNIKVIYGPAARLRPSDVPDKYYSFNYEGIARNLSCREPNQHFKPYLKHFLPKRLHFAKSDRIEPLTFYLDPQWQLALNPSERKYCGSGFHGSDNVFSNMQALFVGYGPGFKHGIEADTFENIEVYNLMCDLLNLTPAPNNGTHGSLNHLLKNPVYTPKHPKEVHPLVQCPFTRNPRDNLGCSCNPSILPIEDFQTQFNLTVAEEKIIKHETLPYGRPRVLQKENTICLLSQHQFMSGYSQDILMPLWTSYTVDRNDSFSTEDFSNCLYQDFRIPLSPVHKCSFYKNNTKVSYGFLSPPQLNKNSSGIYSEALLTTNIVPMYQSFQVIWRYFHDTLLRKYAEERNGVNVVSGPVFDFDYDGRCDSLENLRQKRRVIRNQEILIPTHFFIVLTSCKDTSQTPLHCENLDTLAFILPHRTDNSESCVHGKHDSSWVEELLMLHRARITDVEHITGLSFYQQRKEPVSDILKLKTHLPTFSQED
Briefly: ENPP1 Inhibition Assay. On the procedure: Dose response curve for the compounds were prepared in duplicates with starting conc. at 5 μM and a three-fold titration was performed. The reaction buffer consisted of 50 mM Tris (pH 8.0), 0.5 mM CaCl2), 1 μM ZnCl2, 250 mM NaCl and 0.1 mg/ml BSA. […] The reaction was then stopped by heating at 90° C. for 3 minutes. […] Following 60 min incubation, 20 μL of detection mixture was added to the enzyme reaction bringing the final volume to 40 μL. The reaction was further incubated for 60 min at RT after which the plates were read using BioTek Plate reader.
In the case of `COc1ccc2c(N3CC(CCN(C)S(N)(=O)=O)C3)ncnc2c1` [US20240352046, Compound 1.40], the IC50 came to 0.793 µM.

`COc1ccc2c(N3CC(CCNS(N)(=O)=O)C3)nc(C3CC3)nc2c1` [US20240352046, Compound 1.42] yielded an IC50 greater than 3 µM.

As for `COc1cc2nc(C(F)F)nc(N3CC(CCNS(N)(=O)=O)C3)c2cc1OC` [US20240352046, Compound 1.43], the IC50 is 0.892 µM.

On to `COc1cc2ncnc(N3CC(CCN(C)S(N)(=O)=O)C3)c2cc1OC` [US20240352046, Compound 1.47], for which the concentration for half-maximal inhibition (IC50) was found to be 0.855 µM.

The IC50 is the point on the concentration scale where inhibition reaches its midpoint.
